Laboratory results taken from article PMC8069510, “Synthesis and Evaluation of Novel 2,2-Dimethylthiochromanones as Anti-Leishmanial Agents” (Molecules, 2021).
Where two headings read alike, the source gives them in different places.

Columns and labels:
L. (V) panamensis = details: read-out: EC50 against L. (V) panamensis, cited from earlier work
[1] = Cytotoxicity by MTT assay on J774A.1 macrophage cell line; assay type: cell-based, mouse; details: mouse, J774A.1 macrophage cells; MTT, 72 h incubation; mean (standard deviation)
Method: (§1) Selected compounds were evaluated for their leishmanicidal ability as previously described, through examining their activity on L. infantum axenic amastigotes, and the results are expressed in Table 2 as IC50 values. In parallel, evaluation of the cytotoxicity of test compounds was performed by MTT assay using the J774A.1 macrophage cell line. Results are presented as CC50 values.
(§2) 4.3. Cytotoxicity Evaluation on J774A.1 Cells
(§3) Evaluation of the cytotoxicity of test compounds was performed by MTT assay using the J774A.1 cell line (mouse macrophage cell line, Sigma-Aldrich). Briefly, cells (5 × 10^4 cells/mL) in 100 µL of complete medium, [DMEM High glucose supplemented with 10% fetal calf serum (FCS), 2 mM L-glutamine and antibiotics (100 U/mL penicillin and 100 µg/mL streptomycin)] were seeded into each well of 96-well plates and incubated at 37 °C in a humidified 5% CO2 with 95% air atmosphere. After a 24 h incubation, 100 µL of medium with various product concentrations and appropriate controls were added and the plates were incubated for 72 h at 37 °C. Each plate-well was then examined under the microscope to detect possible precipitate formation before the medium was aspirated from the wells. 100 µL of MTT solution (0.5 mg/mL in RPMI) was then added to each well. Cells were incubated for 2 h at 37 °C. After this time, the MTT solution was removed and DMSO (100 µL) was added to dissolve the resulting formazan crystals. Plates were shaken vigorously (300 rpm) for 5 min. The absorbance was measured at 570 nm with a microplate spectrophotometer. DMSO was used as blank and doxorubicin (Sigma Aldrich, Saint-Quentin-Fallavier, France) as positive control. CC50 values were calculated by non-linear regression analysis on dose–response curves, using the TableCurve 2D V5 software.

[2] = system: L. infantum axenic amastigotes; assay: Antileishmanial activity on L. infantum axenic amastigotes (luciferase luminescence); assay type: cell-based, Leishmania infantum; details: for S.I. (Selectivity Index) = CC50/IC50: CC50 J774A.1 / IC50 L. infantum axenic amastigotes; for IC50 / activity against L. infantum (in words): axenic amastigotes; for IC50: 48 h incubation, mean (standard deviation), three independent experiments
Method: as §1
4.2. Bioassay Procedures: Antileishmanial Activity on L. infantum Axenic Amastigotes
L. infantum promastigotes (MHOM/MA/67/ITMAP-263, CNR Leishmania, Montpellier, France, expressing luciferase activity) were cultivated in RPMI 1640 medium supplemented with 10% foetal calf serum (FCS), 2 mM L-glutamine and antibiotics (100 U/mL penicillin and 100 μg/mL streptomycin) and harvested in the logarithmic phase of growth by centrifugation at 900× g for 10 min. The supernatant was carefully removed and replaced by the same volume of RPMI 1640 complete medium at pH 5.4, and then incubated for 24 h at 24 °C. The acidified promastigotes were then incubated for 24 h at 37 °C in a ventilated flask to transform promastigotes into axenic amastigotes. The effects of the tested compounds on the growth of L. infantum axenic amastigotes were assessed as follows. L. infantum amastigotes were incubated at a density of 2 × 10^6 parasites/mL in sterile 96-well plates with various concentrations of compounds dissolved in DMSO (final concentration less than 0.5% v/v), in duplicate. Appropriate controls, DMSO and amphotericin, were added to each set of experiments. After a 48 h incubation period at 37 °C, each plate-well was then microscopically examined to detect any precipitate formation. To estimate the luciferase activity of axenic amastigotes, 80 μL of each well were transferred to white 96-well plates, Steady Glow® reagent (Promega, Charbonnières-les-Bains, France) was added according to the manufacturer’s instructions, and plates were incubated for 2 min. The luminescence was measured using a Microbeta Luminescence Counter (Perkin Elmer, Villebon-sur-Yvette, France). The inhibitory concentration 50% (IC50) was defined as the concentration of drug required to inhibit by 50% the metabolic activity of L. infantum amastigotes compared to control. IC50 values were calculated by non-linear regression analysis on dose response curves, using the TableCurve 2D V5 software (Systat Software, San Jose, CA, USA). IC50 values represent the mean of three independent experiments.

[3] = system: amastigotes of L. infantum; parameters: method as in PMID 29935351; details: cited from earlier work
[4] = system: amastigotes of Trypanosoma cruzi; parameters: method as in PMID 29935351; details: cited from earlier work
[5] = parameters: method as in PMID 29286346; details: cited from earlier work
J774A.1 cells = assay: Cytotoxicity by MTT assay on J774A.1 macrophage cell line; assay type: cell-based, mouse
Method: as §1, §2, §3

L. braziliensis = system: L. braziliensis; parameters: method as in PMID 32734890; details: topical application, co-formulated with saponins; cited from earlier work
L. pifanoi = system: L. pifanoi; parameters: method as in PMID 32734890; details: topical application, co-formulated with saponins; cited from earlier work
[6] = system: axenic amastigotes of L. infantum; parameters: method as in PMID 32258470; details: cited from earlier work
[7] = system: intracellular amastigotes of L. infantum; parameters: method as in PMID 32258470; details: cited from earlier work

| Molecule | CC50 at 72 h [1] [µM] | S.I. (Selectivity Index) = CC50/IC50 [2] | IC50 ([2]; Leishmania infantum) [µM] | other results |
| --- | --- | --- | --- | --- |
| O=C1C=C(c2ccc(C(F)(F)F)cc2)S(=O)(=O)c2ccc(F)cc21 [Compound 6] | – | – | – | EC50 (L. (V) panamensis): < 10 µM |
| CCCCCCCC(=O)NCc1ccc2c(c1)C(=O)CC(C)(C)S2 [Compound 11d, N-((2,2-Dimethyl-4-oxothiochroman-6-yl)methyl)octanamide] | 137 | 2.68 | 51.3 | – |
| C[C@@H]1[C@H](O)[C@@H](C)/C=C/C=C/C=C/C=C/C=C/C=C/C=C/[C@H](O[C@@H]2O[C@H](C)[C@@H](O)[C@H](N)[C@@H]2O)C[C@@H]2O[C@](O)(C[C@@H](O)C[C@@H](O)[C@H](O)CC[C@@H](O)C[C@@H](O)CC(=O)O[C@H]1C)C[C@H](O)[C@H]2C(=O)O [Amphotericin B, reference compound] | – | – | 0.072 | – |
| CCCCCCCCNCc1ccc(OC)cc1 [Compound 5] | – | – | – | IC50 [3]: 1.3 µM; IC50 [4]: 5.8 µM |
| COc1cccc2c1C(=O)c1c(O)c3c(c(O)c1C2=O)C[C@@](O)(C(=O)CO)C[C@@H]3O[C@H]1C[C@H](N)[C@H](O)[C@H](C)O1 [Doxorubicin, reference compound] | 0.047 | – | – | – |
| CCCCCCCCNCc1ccc2c(c1)C(=O)CC(C)(C)[S+]2[O-] (stereo not shown) [Compound 13, 2,2-Dimethyl-6-((octylamino)methyl)thiochroman-4-one 1-oxide] | 40.9 | 1.22 | 33.4 | – |
| NC(=S)N/N=C1\CC(c2ccccc2)Sc2ccccc21 (stereo not shown) [Compound 7] | – | – | – | EC50 (L. (V) panamensis; acyl hydrazone derivatives): 5.1 µM; cytotoxicity (in words) [5]: low cytotoxicity |
| (2,2-Dimethyl-4-oxothiochroman-6-yl)methyl-6-phenylhex-5-enoate [Compound 11b] | – | – | – | cytotoxicity to macrophages (in words) (J774A.1 cells; J774A.1, compared with activity against axenic amastigotes): comparably cytotoxic to macrophages; CC50 (J774A.1 cells; MTT, 72 h incubation, mean (standard deviation)): 14 µM; IC50 [2]: 19.9 µM |
| CCCCCCNCc1ccc2c(c1)C(=O)CC(C)(C)S2 [Compound 12b, 6-((Hexylamino)methyl)-2,2-dimethylthiochroman-4-one] | 25.8 | 1.12 | 23.1 | – |
| CC1(C)CC(=O)c2cc(CNC(=O)CCCCCCCCBr)ccc2S1 [Compound 11e, 9-Bromo-N-((2,2-dimethyl-4-oxothiochroman-6-yl)methyl)nonanamide] | 58 | 8.06 | 7.2 | activity against L. infantum (in words) [2]: notable anti-leishmanial activity |
| CC1(C)CC(=O)c2cc(CNC(=O)/C=C/C=C/c3ccc4c(c3)OCO4)ccc2S1 [Compound 11c, (2E,4E)-5-(Benzo[d][1,3]dioxol-5-yl)-N-((2,2-dimethyl-4-oxothiochroman-6-yl)methyl)penta-2,4-dienamide] | > 119 | – | > 119 | activity against L. infantum (in words) [2]: devoid of activity |
| CC1(C)CC(=O)c2cc(CNC(=O)C/C=C/c3ccccc3)ccc2S1 [Compound 11a, (E)-N-((2,2-Dimethyl-4-oxothiochroman-6-yl)methyl)-4-phenylbut-3-enamide] | 31.6 | 3.01 | 10.5 | activity against L. infantum (in words) [2]: notable anti-leishmanial activity |
| CC1(C)CC(=O)c2cc(COC(=O)/C=C/C=C/c3ccc4c(c3)OCO4)ccc2S1 [Compound 10b, (2,2-Dimethyl-4-oxothiochroman-6-yl)methyl (2E,4E)-5-(benzo[d][1,3]dioxol-5-yl)penta-2,4-dienoate] | 22.5 | 0.25 | 91.3 | – |
| O=C(N/N=C1\CCSc2ccccc21)c1ccccc1 [Compound 8] | – | – | – | effect on parasite survival and infectivity (in words) (L. braziliensis): very effective; effect on parasite survival and infectivity (in words) (L. pifanoi): very effective |
| CCCCCCCCNCc1ccc2c(c1)C(=O)CC(C)(C)S2(=O)=O [Compound 14, 2,2-Dimethyl-6-((octylamino)methyl)thiochroman-4-one 1,1-dioxide] | 42.8 | 1.27 | 33.8 | – |
| CC1(C)CC(=O)c2cc(COC(=O)C/C=C/c3ccccc3)ccc2S1 [Compound 10a, (2,2-Dimethyl-4-oxothiochroman-6-yl)methyl (E)-4-phenylbut-3-enoate] | > 136 | >3.97 | 34.4 | – |
| CCCCNCc1ccc2c(c1)C(=O)CC(C)(C)S2 [Compound 12a, 6-((Butylamino)methyl)-2,2-dimethylthiochroman-4-one] | 33.2 | 1.25 | 26.5 | – |
| CCCCCCCCCCNCc1ccc2c(c1)C(=O)CC(C)(C)S2 [Compound 12d, 2,2-Dimethyl-6-((decylamino)methyl)thiochroman-4-one] | 23.1 | 1.86 | 12.4 | – |
| CCCCCCCCNCc1ccc2c(c1)C(=O)CC(C)(C)S2 [Compound 12c, 2,2-Dimethyl-6-((octylamino)methyl)thiochroman-4-one] | 22.6 | 1.16 | 19.5 | – |
| CCCCCCCCNCc1ccc2c(c1)C(=O)CC(C)(C)O2 [Compound 3] | – | – | – | IC50 [6]: 25.3 µM; IC50 [7]: 24.6 µM |
